In paper PMC3914206:

Columns and labels:
Format in all cases: binding
panel of 442 kinases [1] = biological target: T1, panel of 442 kinases (Homo sapiens, UniProt P33981); conditions: kinase TTK; compound concentration 10 µM
T1 construct: purchased KINOMEscan
T1 sequence (P33981 1-857): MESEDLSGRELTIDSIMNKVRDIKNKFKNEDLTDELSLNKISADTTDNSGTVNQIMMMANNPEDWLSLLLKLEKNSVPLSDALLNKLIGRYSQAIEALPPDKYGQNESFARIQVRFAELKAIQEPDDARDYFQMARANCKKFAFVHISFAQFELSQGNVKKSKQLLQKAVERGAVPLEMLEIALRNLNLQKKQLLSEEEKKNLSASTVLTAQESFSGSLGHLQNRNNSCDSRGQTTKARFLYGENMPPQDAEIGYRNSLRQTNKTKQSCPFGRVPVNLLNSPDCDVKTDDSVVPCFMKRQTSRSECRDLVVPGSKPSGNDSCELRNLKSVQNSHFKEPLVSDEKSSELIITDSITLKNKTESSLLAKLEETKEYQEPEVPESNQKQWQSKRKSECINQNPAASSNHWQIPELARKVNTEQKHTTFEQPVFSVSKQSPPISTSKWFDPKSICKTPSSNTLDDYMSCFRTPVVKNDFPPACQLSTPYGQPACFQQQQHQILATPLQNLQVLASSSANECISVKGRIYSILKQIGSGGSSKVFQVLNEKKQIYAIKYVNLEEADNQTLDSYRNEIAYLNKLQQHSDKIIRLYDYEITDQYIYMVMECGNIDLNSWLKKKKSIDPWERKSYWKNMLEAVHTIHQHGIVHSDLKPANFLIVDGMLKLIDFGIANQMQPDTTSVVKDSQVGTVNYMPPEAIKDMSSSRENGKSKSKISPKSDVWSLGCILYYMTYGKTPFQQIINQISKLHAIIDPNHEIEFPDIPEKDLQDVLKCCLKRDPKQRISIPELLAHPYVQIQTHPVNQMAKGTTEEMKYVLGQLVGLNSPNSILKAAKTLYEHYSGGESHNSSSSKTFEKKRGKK
From the text: (§1) We assessed the selectivity of members of this scaffold using the KINOMEscan methodology across a near comprehensive panel of 442 kinases [[18,27]].

panel of 442 kinases [2] = biological target: T2, panel of 442 kinases (Homo sapiens, UniProt Q02750); conditions: Compound Concentration 10 µM
T2 construct: purchased KINOMEscan
T2 sequence (Q02750 whole entry): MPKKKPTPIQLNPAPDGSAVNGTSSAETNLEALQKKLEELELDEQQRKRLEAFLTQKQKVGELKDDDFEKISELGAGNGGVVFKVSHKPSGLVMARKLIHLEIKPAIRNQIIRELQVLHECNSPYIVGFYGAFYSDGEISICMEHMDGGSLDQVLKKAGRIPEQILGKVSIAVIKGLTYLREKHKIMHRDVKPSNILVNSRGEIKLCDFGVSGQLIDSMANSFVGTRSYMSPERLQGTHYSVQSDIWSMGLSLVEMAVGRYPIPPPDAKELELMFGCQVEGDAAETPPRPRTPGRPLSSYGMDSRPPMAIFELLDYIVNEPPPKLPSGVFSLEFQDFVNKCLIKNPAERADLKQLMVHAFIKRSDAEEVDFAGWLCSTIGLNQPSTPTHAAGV
From the text: as §1

panel of 442 kinases [3] = biological target: T3, panel of 442 kinases (Homo sapiens, UniProt P53779); conditions: Compound Concentration 10 µM
T3 construct: purchased KINOMEscan
T3 sequence (P53779 whole entry): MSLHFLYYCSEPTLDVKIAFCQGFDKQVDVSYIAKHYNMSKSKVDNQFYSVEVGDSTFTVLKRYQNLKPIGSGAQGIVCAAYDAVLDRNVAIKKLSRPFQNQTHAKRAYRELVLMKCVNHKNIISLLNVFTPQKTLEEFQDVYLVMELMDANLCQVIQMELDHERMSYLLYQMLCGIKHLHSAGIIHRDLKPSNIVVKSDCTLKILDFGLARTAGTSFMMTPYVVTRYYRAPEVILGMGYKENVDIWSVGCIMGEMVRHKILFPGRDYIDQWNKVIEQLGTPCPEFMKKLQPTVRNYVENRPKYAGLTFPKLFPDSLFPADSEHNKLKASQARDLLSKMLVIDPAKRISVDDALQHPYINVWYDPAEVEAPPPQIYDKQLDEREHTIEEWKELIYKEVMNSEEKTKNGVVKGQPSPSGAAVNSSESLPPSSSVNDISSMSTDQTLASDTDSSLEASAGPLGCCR
From the text: as §1

## COc1cc(C(=O)N2CCC(N3CCN(C)CC3)CC2)ccc1Nc1ncc2c(n1)N(C)c1ccccc1C(=O)N2C [15 (LRRK2-IN-1)]
Panel of 442 kinases [1]
  % Ctrl, TTK: 28 % Ctrl
Panel of 442 kinases [2]
  KINOMEscan: MEK1: 100
Panel of 442 kinases [3]
  KINOMEscan: JNK3: 77

## COc1cc(C(=O)N2CCC(N3CCN(C)CC3)CC2)ccc1Nc1ncc2c(n1)N1CCc3cccc(c31)C(=O)N2C [Compound 24]
Panel of 442 kinases [1]
  % Ctrl, TTK: 46 % Ctrl
Panel of 442 kinases [2]
  KINOMEscan: MEK1: 75
Panel of 442 kinases [3]
  KINOMEscan: JNK3: 43

## COc1cc(C(=O)N2CCC(N3CCN(C)CC3)CC2)ccc1Nc1ncc2c(n1)N(C1CCCC1)c1ccccc1C(=O)N2C [Compound 25, 11-cyclopentyl-2-((2-methoxy-4-(4-(4-methylpiperazin-1-yl)piperidine-1-carbonyl)phenyl)amino)-5-methyl-5H-benzo[e]pyrimido[5,4-b][1,4]diazepin-6(11H)-one]
Panel of 442 kinases [1]
  % Ctrl, TTK: 94 % Ctrl
Panel of 442 kinases [2]
  KINOMEscan: MEK1: 68
Panel of 442 kinases [3]
  KINOMEscan: JNK3: 48

## CCOc1cc(C(=O)N2CCC(N3CCN(C)CC3)CC2)ccc1Nc1ncc2c(n1)N(C1CCCC1)c1ccccc1C(=O)N2C [Compound 26]
Panel of 442 kinases [1]
  % Ctrl, TTK: 49 % Ctrl
Panel of 442 kinases [2]
  KINOMEscan: MEK1: 100
Panel of 442 kinases [3]
  KINOMEscan: JNK3: 74
